Assay results from patent US20250339445A1, “Modulators of Orphan Nuclear Receptors for Treating Pancreatitis, Glioblastoma, Sarcopenia and Stroke” (Emory University, priority 2020, published 2025).

Experiments:
[1] = molecular target: T1, RORα (Homo sapiens, UniProt P35398); experiment: RORα activity by luciferase reporter (miR-122 promoter) in Huh-7 cells; type: cell-based; set-up: MIR122 promoter activity compared with SR1078: dose or concentration left out as unconfirmed; details: wild type and mutant RORA
T1 construct: endogenous in cells; host or cells: Huh-7 (Huh7) human hepatocellular carcinoma cells
T1 sequence (P35398 1-523): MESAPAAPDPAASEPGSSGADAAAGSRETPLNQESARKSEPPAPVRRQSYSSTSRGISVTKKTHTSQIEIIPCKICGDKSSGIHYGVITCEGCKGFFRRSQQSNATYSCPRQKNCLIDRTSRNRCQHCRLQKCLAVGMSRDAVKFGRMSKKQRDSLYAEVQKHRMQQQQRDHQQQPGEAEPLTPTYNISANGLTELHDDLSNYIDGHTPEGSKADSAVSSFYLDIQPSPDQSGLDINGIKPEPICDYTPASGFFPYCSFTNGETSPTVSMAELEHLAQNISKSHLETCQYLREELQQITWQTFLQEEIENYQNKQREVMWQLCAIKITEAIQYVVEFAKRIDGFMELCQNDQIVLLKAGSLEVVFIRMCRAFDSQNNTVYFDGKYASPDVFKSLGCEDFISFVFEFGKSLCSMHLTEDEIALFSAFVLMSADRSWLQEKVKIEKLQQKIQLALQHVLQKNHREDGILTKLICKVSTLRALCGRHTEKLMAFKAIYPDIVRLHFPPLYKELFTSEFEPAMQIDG
Protocol: Huh-7 cells were transfected with a luciferase reporter plasmid containing the miR-122 promoter (extends to −900 from the transcription start site) with intact wild-type (WT) RORα response element (RORE) or mutated RORE (mut). The cells were treated with Compound 1 one day (24 hours) post-transfection at the indicated concentrations. Luciferase expression was measured after 24 hours of treatment and normalized to Renilla Luciferase activity expressed from a co-transfected pRL plasmid. The pRL Vector, which provides constitutive expression of Renilla luciferase, was used in combination with a firefly luciferase vector to co-transfect cells. Expression of Renilla luciferase provides an internal control value to which expression of the experimental firefly luciferase reporter gene may be normalized.
Luciferase assay. For Luciferase assays, cells grown in 24 well plates were co-transfected with a luciferase reporter plasmid (50 ng) and 1 ng of Renilla Luciferase vector (PRL, Promega) using the TransIT-LT 1 (Mirus) transfection reagent (MIR 2300, Madison, WI). Firefly and Renilla luciferase activity was assessed using the Dual Luciferase Reporter Assay system (Promega). Readings were taken in triplicates on a Mithras LB 940 Luminometer (Berthold Technologies). […]
(§1) Following transfections, the cells were lysed with passive lysis buffer (Cat #E1941; Promega), shaking for 20 min at RT and transferred into appropriate 96-well plate. Firefly and Renilla luciferase activity was assessed using the Dual Luciferase Reporter Assay system (Cat #E1910; Promega) on a luminometer Mithras 2000 (Centro XZ, LB960, Berthold Technologies, Bad Wildbad, Germany). […] Readings were taken in triplicate.
as §1, with “room temperature (RT)” for “RT”, “into the” for “into”, “triplicates. […]” for “triplicate.”
After transfections, the cells were lysed with passive lysis buffer (catalog no. E1941, Promega), shaken for 20 minutes at room temperature, and transferred into the appropriate 96-well plate. Firefly and Renilla luciferase activity was assessed using the Dual Luciferase Reporter Assay system (catalog no. E1910, Promega) on a luminometer Mithras 2000 (Centro XZ, LB960; Berthold Technologies, Bad Wildbad, Germany). […] Readings were taken in triplicate.

[2] = tested on: peripheral and the central benzodiazepine receptors; details: prediction later experimentally proven; cited from earlier work
[3] = tested on: FGF21; experiment: FGF21 mRNA expression in 266-6 murine acinar cells (RT-qPCR); type: cell-based; details: 266-6 cells
Protocol: Using one of these models, RT-qPCR analysis of FFG21 mRNA expression was performed in 266-6 murine acinar cells after 6 hours treatment of DMSO/different doses of SR1078 (commercial ROR-α agonist). The statistical significance was calculated relative to DMSO and was determined by Student's t test (two-tailed). Values in graphs are mean±SD. *p<0.05, **p<0.01, ***p<0.001, ****p<0.0001.

[4] = tested on: MIR122; experiment: AntagoMIR122 treatment of chow or HFD fed mice; type: in vivo, C57BL/6 mice; details: for MIR122 levels in plasma, liver and white adipose tissue: hydrodynamic tail vein injection, 5 μg/mouse once a week
Protocol: C57BL/6 mice, 7 to 8 weeks old, were fed chow or 50% HFD, consisting of 50% Fat, 20% Sucrose, 10% Fructose, 1.25% Chol) (Envigo, TD.150235) for 4 weeks. In experiments of miR-122 repression by antagomiR, mice were hydrodynamic tail vain injected with antagomiR-122 or antagomiR-control (5 μg/mouse in 1.5 mL saline) once a week for 4 weeks and were still fed HFD or chow diet. After 4 weeks of injections mice were sacrificed and the livers, white adipose, and skeletal muscle tissues were frozen in liquid nitrogen or in optimum cutting temperature embedded frozen blocks, for further RNA and histologic analysis. AntagomiRs were obtained from Sigma-Aldrich (St Louis, MO); see Table 5.
C57BL/6 mice, 7 to 8 weeks old, were fed chow or 50% HFD, consisting of 50% Fat, 20% Sucrose, 10% Fructose, 1.25% Cholesterol) (Envigo, TD.150235) for 4 weeks. In experiments of MIR122 repression by antagomiR, mice were hydrodynamic tail vain injected with antagoMIR122 or antagomiR-control (5 μg/mouse in 1.5 mL saline) once a week for 3 weeks and were still fed HFD or chow diet. After 3 weeks of injections mice were sacrificed and the livers, gonadal white adipose, and skeletal muscle tissues were frozen in liquid nitrogen or in optimum cutting temperature embedded frozen blocks, for further RNA and histologic analysis. AntagomiRs were obtained from Sigma-Aldrich (St Louis, MO).

[5] = tested on: high-fat-fed C57BL/6 mice; experiment: High-fat-diet-fed C57BL/6 mice treated with Compound 1 and/or antagomiR-122; type: in vivo; details: 50% HFD; Compound 1 7.5 mg/kg i.p. twice a week, antagomiR once a week, 3 weeks
Protocol: C57BL/6 mice were fed a 50% high fat diet (HFD) for four weeks. The control cohort received three hydrodynamic tail vein injections of a 5 μg antagomiR-control and six i.p injections of saline over three weeks. A second cohort was hydrodynamic tail vein injected with 5 μg antagomiR-122 (the reverse complement that inhibits activity of miR-122) three times and i.p injections of saline six times over three weeks. A third cohort was injected i.p. with Compound 1 (7.5 mg/kg) twice a week plus antagomiR-control once a week over the course of 3 weeks. The final cohort was injected i.p. with Compound 1 (7.5 mg/kg) twice a week plus antagomiR-122 injections once a week over the course of 3 weeks.
Male C57BL/6J mice, 7 to 8 weeks old, were housed randomly in standard cages and were fed a HFD, or atherogenic diet (consisting 1% Chol and 0.5% cholic acid, see also Table 6). All mice had free access to water during the experimental period. During the feeding period body weight was monitored every 3 days. In the HFD experiment, after 4 or 6 weeks, the resultant obese mice were treated with antagomiR-122 (5 μg/mouse once a week for 3 weeks), or i.p. injected with Compound 1 (RORα agonist, 7.5 mg/kg twice a week for 3 weeks; or 15 mg/kg 3 times a week for 3 weeks). The obese control (HFD) group was administered only saline with DMSO and antagomiR-control. After 3 weeks of treatment mice were sacrificed and livers were taken for RNA-seq analysis. Livers, white adipose, and skeletal muscle tissues were frozen in liquid nitrogen or in optimum cutting temperature embedded frozen blocks, for further RNA and histologic analysis. In the atherogenic diet experiment mice were treated with 15 mg/kg Compound 1 after 3 weeks with the diet. After 3.5 weeks of treatment, mice were sacrificed, and the livers were frozen in liquid nitrogen or in optimum cutting temperature embedded frozen blocks. Plasma was collected from atherogenic diet-fed mice and saved in −20° C. for ALT and AST analysis using the Reflotron® Analyzer and test-strips (Roche).
In the HFD experiment, after 4 or 6 weeks, the resultant obese mice were treated with antagoMIR122 (5 μg/mouse once a week for 3 weeks), or i.p. injected with Compound 1 (RORα agonist, 7.5 mg/kg twice a week for 3 weeks; or 15 mg/kg 3 times a week for 3 weeks). The obese control (HFD) group was administered only saline with DMSO and antagomiR-control.
Mice were fed with a 50% HFD and after 4 weeks, when fatty liver was already established, they were treated with Compound 1, antagoMIR122 or both compounds together for an additional 3 weeks. […] The weighing of mice began at week 3, one week before treatments were initiated. […] The liver weight of the mice was in accordance with their body weight.

O=C1Nc2cc(C(=O)N3CCC(Cc4ccccc4)CC3)ccc2Nc2ccccc21 [Compound 68]
MIR122 promoter activity compared with SR1078 [1]: more potent than the commercial synthetic RORA agonist SR1078

CC(C)=CCC/C(C)=C/CC/C(C)=C/CN1C(=O)c2cccc(O)c2Nc2c(O)cc(O)cc21 [Diazepinomicin]
Predicted CNS activity (Gourdeau et al. 2008) [2]: predicted to be CNS inactive

O=C(Nc1ccc(C(O)(C(F)(F)F)C(F)(F)F)cc1)c1ccc(C(F)(F)F)cc1 [SR1078]
Fgf21 expression in acinar cells ([3]; 6 hours treatment): increases Fgf21 expression | Concentration of optimal effect on Fgf21 expression ([3]; 6 hours, effect decreasing at 20 and 40 μM): 10 micromolar (μM)

antagomiR-122: MIR122 antagonist; 2′-O Me-modified, phosphorothioate, cholesterol-linked reverse complement that inhibits activity of miR-122 (antisense ACAAACACCAUUGUCACACUCCA; all 2'-O-methyl, backbone not given here; phosphorothioate linkages and cholesterol conjugate, further chemistry not fully specified)
Mice weight ([4]; HFD mice): increased significantly | Liver fat droplets, total TG liver content and muscle TG levels ([4]; HFD-fed mice): increase | MIR122 levels in plasma, liver and white adipose tissue [4]: significantly reduced | MIR122 levels in plasma, liver and white adipose tissue ([4]; listed as antagoMIR122): reduced significantly | Body weight [5]: highest increase in weight
